This note sets out measurements from ChEMBL document CHEMBL5096146, “Porphyrin and phthalocyanine photosensitizers designed for targeted photodynamic therapy of colorectal cancer” (Bioorg Med Chem, 2021).

SMILES strings stand for the structures. ≈ marks a conversion by molar mass, not a printed value.

Assay [1] deals with HT-29. In words: Photodynamic cytotoxicity against human HT-29 cells assessed as reduction in cell viability incubated for 3 hrs followed by fresh medium replacement and subsequent blue LED irradiation measured after 24 hrs by MTT assay relative to control. It is filed as functional.
Assay [2] relates to HT-29. In words: Antitumor activity against human HT-29 cells xenografted in BALB/c mouse assessed as tumor growth inhibition at 250 mg/kg, ip followed by LED irradiation with repeated compound irradiation for thrice upto 3 weeks relative to control. The format is functional. To be noted: HT-29, light or radiation study, 504 h, read-out: TGI.
Assay [3] deals with HT-29. Description: Photodynamic cytotoxicity against human HT-29 cells assessed as reduction in cell viability incubated for 3 hrs followed by fresh medium replacement and subsequent red LED irradiation measured after 24 hrs by MTT assay relative to control. The format is functional.
In assay [4] the test system is HT-29. Description: Photodynamic cytotoxicity against human HT-29 cells assessed as reduction in cell viability incubated for 3 hrs followed by fresh medium replacement and subsequent white LED irradiation measured after 24 hrs by MTT assay relative to control. The format is functional.
For assay [5], the system named is WiDr. Description: Photocytotoxicity against human WiDr cells assessed as lethal dose incubated for 18 hrs followed by replacement of medium containing compound with 48 hrs incubation and subsequent light irradiation of 13.5 mW/cm2 at 435 nm measured after 48 hrs by MTT assay. As to conditions: light or radiation study, read-out: LD50 (the source's name). It is filed as functional.

For assay [6], the system named is WiDr. Description: Photodynamic cytotoxicity against human WiDr cells assessed as reduction in cell viability at 50 nM incubated for 24 hrs followed by compound washout and 7.5 mW/cm2 light irradiation measured after 24 hrs by MTT assay relative to control. The format is functional.
The test system of assay [7] is WiDr. Description: Photodynamic cytotoxicity against human WiDr cells assessed as cell growth inhibition measured after 24 hrs of 10J light irradiation by flow cytometry. It is filed as functional, cell-based. As to conditions: light or radiation study.
The test system of assay [8] is WiDr. In words: Photodynamic cytotoxicity against human WiDr cells assessed as cell growth inhibition measured after 72 hrs of 10J light irradiation by flow cytometry. It is filed as functional, cell-based. To be noted: light or radiation study.
Assay [9] has as its system HT-29. In words: Photodynamic cytotoxicity against human HT-29 cells assessed as reduction in cell viability at 19.4 J/cm2 light irradiation >570 nm followed by immediate fresh medium replacement measured after 24 hrs by MTT assay relative to control. The format is functional.
The test system of assay [10] is HT-29. In words: Photodynamic cytotoxicity against human HT-29 cells assessed as reduction in cell viability at 19.4 J/cm2 light irradiation followed by immediate fresh medium replacement measured after 24 hrs by MTT assay relative to control. The format is functional.
Assay [11] has as its system HT-29. Description: Photocytotoxicity against human HT-29 cells assessed as lethal dose incubated for 4 hrs followed by 3 J/cm2 LED irradiation and subsequent compound replenishment measured after 20 hrs by MTT assay. It is filed as functional.

With `C=CC1=C(C)c2cc3[nH]c(cc4nc(cc5[nH]c(cc1n2)c(C)c5C=C)C(C)=C4CCC(=O)O)c(CCC(=O)O)c3C`, the results for the Activity in assay [1], in [3] and in assay [4] were 40%, 20% and 40%, respectively. Also, the inhibition in vivo at 250 mg/kg in [2] was found to be 88%. Consider `C[N+](C)(C)c1ccc(-c2c3nc(c(-c4ccc([N+](C)(C)C)cc4)c4ccc([nH]4)c(-c4ccc([N+](C)(C)C)cc4)c4nc(c(-c5ccc([N+](C)(C)C)cc5)c5ccc2[nH]5)C=C4)C=C3)cc1`, for which the CC50 in assay [5] was determined as 2000 nM. The same measure, in the same setting: under `O=S(=O)(O)c1ccc(-c2c3nc(c(-c4ccc(S(=O)(=O)O)cc4)c4ccc([nH]4)c(-c4ccc(S(=O)(=O)O)cc4)c4nc(c(-c5ccc(S(=O)(=O)O)cc5)c5ccc2[nH]5)C=C4)C=C3)cc1` stands 100000 nM; under `O=C(O)c1ccc(-c2c3nc(c(-c4ccc(C(=O)O)cc4)c4ccc([nH]4)c(-c4ccc(C(=O)O)cc4)c4nc(c(-c5ccc(C(=O)O)cc5)c5ccc2[nH]5)C=C4)C=C3)cc1`, 15000 nM; under `Oc1ccc(-c2c3nc(c(-c4ccc(O)cc4)c4ccc([nH]4)c(-c4ccc(O)cc4)c4nc(c(-c5ccc(O)cc5)c5ccc2[nH]5)C=C4)C=C3)cc1`, 200 nM. For `Oc1ccc(Br)c(-c2c3nc(cc4ccc([nH]4)c(-c4cc(O)ccc4Br)c4nc(cc5ccc2[nH]5)C=C4)C=C3)c1`, in assay [6], the Activity is above 50%. For the same compound, the figures for the IC50 in assay [7] and in assay [8] were 180 nM and 140 nM, respectively. Regarding `Oc1ccc(Cl)c(-c2c3nc(cc4ccc([nH]4)c(-c4cc(O)ccc4Cl)c4nc(cc5ccc2[nH]5)C=C4)C=C3)c1`, the Activity in assay [6] was above 50%. Regarding `Oc1ccc(Br)c(-c2c3nc(c(-c4cc(O)ccc4Br)c4ccc([nH]4)c(-c4cc(O)ccc4Br)c4nc(c(-c5cc(O)ccc5Br)c5ccc2[nH]5)C=C4)C=C3)c1`, the IC50 turned out to be 464 nM in assay [7] and 620 nM in [8]. As to `C1=Cc2nc1c(-c1ccc3ccccc3n1)c1ccc([nH]1)c(-c1ccc3ccccc3n1)c1nc(c(-c3ccc4ccccc4n3)c3ccc([nH]3)c2-c2ccc3ccccc3n2)C=C1`, the values for the Activity in [9] and in assay [10] were 10% and 80%, respectively.

On to `Oc1cccc(-c2c3nc(cc4ccc([nH]4)c(-c4cccc(O)c4)c4nc(cc5ccc2[nH]5)C=C4)C=C3)c1`, for which the Activity in assay [6] was above 50%. Still for that read-out and setting: as for `Oc1cccc(-c2c3nc(cc4ccc([nH]4)c(-c4cccc(O)c4I)c4nc(cc5ccc2[nH]5)C=C4)C=C3)c1I`, the figure is above 50%; as for `Oc1cc(-c2c3nc(cc4ccc([nH]4)c(-c4ccc(I)c(O)c4)c4nc(cc5ccc2[nH]5)C=C4)C=C3)ccc1I`, above 50%.

Take `Oc1cccc(-c2c3nc(c(-c4cccc(O)c4)c4ccc([nH]4)c(-c4cccc(O)c4)c4nc(c(-c5cccc(O)c5)c5ccc2[nH]5)CC4)C=C3)c1` [TEMOPORFIN]: the LD70 in assay [11] came to 0.6 µg/mL. Besides, the CC50 in assay [11] (Homo sapiens, HT-29, light or radiation study, read-out: LD50 (the source's name)) was 0.3 µg/mL (≈ 0.441 µM).
